What was measured:
IFN [1] = test: Cytokine assay (ELISA) from homogenate of cultured duodenal biopsies: IFN; type: cell-based, human; conditions: for IFN, PT + 5ASA O, Mean / IFN, PT + 5ASA O, Median: peptic-tryptic digest of gliadin (PT)
Method: (§1) The biopsies were washed in saline for two minutes at least three times. […] After an incubation time ranging from 4 h to 72 h, at a T of 37° C.: The bioptic fragment is washed three times in saline for two minutes The biopsies are homogenised by mechanical or chemical disintegration Centrifugation is carried out, the supernatant is collected and transferred in a 1.5 ml Eppendorf Fixed cytokines in the mucosal tissue are assayed by the Elisa assay.

PPARγ = target: T1, PPARγ (Homo sapiens, UniProt P37231); test: PPARγ activation, PPRE luciferase reporter in transfected HT-29 STD cells (Example 7); type: cell-based; conditions: 30 mM, positive control
T1 construct: HT-29 STD cells were transiently transfected using the Effectene™ transfection reagent; endogenous in cells; host or cells: HT-29 STD (ATCC HTB-38)
T1 sequence (P37231 1-505): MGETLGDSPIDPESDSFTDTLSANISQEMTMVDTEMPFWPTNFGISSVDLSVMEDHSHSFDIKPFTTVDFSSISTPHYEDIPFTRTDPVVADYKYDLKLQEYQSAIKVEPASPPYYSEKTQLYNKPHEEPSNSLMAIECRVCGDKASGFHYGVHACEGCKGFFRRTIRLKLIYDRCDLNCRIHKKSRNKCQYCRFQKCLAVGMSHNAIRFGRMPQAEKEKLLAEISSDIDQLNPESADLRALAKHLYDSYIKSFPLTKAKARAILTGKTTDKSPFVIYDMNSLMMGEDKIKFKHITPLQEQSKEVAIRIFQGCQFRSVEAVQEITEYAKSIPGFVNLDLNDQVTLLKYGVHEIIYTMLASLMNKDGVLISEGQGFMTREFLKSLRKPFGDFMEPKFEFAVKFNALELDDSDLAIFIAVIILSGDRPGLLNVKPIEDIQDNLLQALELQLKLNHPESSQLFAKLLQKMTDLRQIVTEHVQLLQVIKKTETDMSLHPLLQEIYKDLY
Method: The colon carcinoma cell line HT-29 STD (ATCC HTB-38) was routinely grown in DMEM supplemented with 10% heat-FCS, and antibiotics.
HT-29 STD cells were transiently transfected using the Effectene™ transfection reagent (Qiagen™) according to instructions from the manufacturer. To test PPARγ activation, we performed transfection with 500 ng of a minimal promoter construct containing two copies of PPRE obtained from the cytochrome p450 4A (2XCYP). The renilla luciferase plasmid (0.1 μg/well) was also transfected as an internal control for monitoring transfection efficiency and for normalizing the firefly luciferase activity. Transfected cells were left for 24 hours incubation at 37° C. […] The pH of the drug solutions was adjusted to 7.4 with NaOH. Total cell extracts were prepared using the Passive Lysis Buffer (Promega™, Madison, Wis.). Luciferase activity was assayed in 20 μl of the extract using Promega's Dual Luciferase assay system according to manufacturer's protocol. Transfections were assayed in triplicate in at least three separate experiments. The luciferase activity was expressed as fold of the activity obtained in cells treated with the different molecules dividing by luciferase activity from non stimulated cells.
We investigated PPARγ transcriptional activity by transient transfections of epithelial cells with the renilla luciferase and PPRE plasmids. […]

IFN [2] = test: Cytokine assay (ELISA) in culture liquids of duodenal biopsy organ cultures, 5-ASA 1.5-8.0 mg per ml, 4 h to 72 h: IFN; type: cell-based, human; conditions: for IFN, PT + 5ASA C, Mean / IFN, PT + 5ASA C, Median: peptic-tryptic digest of gliadin (PT)
Method: (§2) 3 groups of subjects were evaluated. The first (atrophic) group included 29 subjects with serum tests positive to antiendomysium and anti-transglutaminase antibodies, with a neo-diagnosis of celiac disease and gluten-containing diet. The second (Remission) group included 17 celiac disease subjects in clinical remission and gluten-free diet for at least 6 months. The third (Healthy) group included subjects not suffering from the celiac disease but suffering from inflammation of the gastro-enteric tract. […] The biopsies were washed in saline for two minutes at least three times. […] Three different amounts of medium are shared for the ELISA assay of Th1 and Th2 cytokines released in culture media.

IL-2 [3] = test: Cytokine assay (ELISA) in culture liquids of duodenal biopsy organ cultures: IL-2; type: cell-based, human; conditions: for IL-2, PT + 5ASA C, Mean / IL-2, PT + 5ASA C, Median: peptic-tryptic digest of gliadin (PT)
Method: as §2

IFN-gamma = test: Gene expression (mRNA) by RT-PCR in cultured duodenal biopsies of celiac patients: IFN-gamma; type: cell-based, human; conditions: PT medium with 5-ASA versus PT medium, 37° C., 48 h; optical density of bands
TFN-alpha = test: Gene expression (mRNA) by RT-PCR in cultured duodenal biopsies of celiac patients: TFN-alpha; type: cell-based, human; conditions: PT medium with 5-ASA versus PT medium, 37° C., 48 h; optical density of bands
cytokines = test: Organ culture of duodenal biopsies, cytokines overall; type: cell-based, human; conditions: biopsies of celiac disease subjects versus subjects without celiac disease
Method: The biopsies were washed in saline for two minutes at least three times. The biopsies were placed in culture media having a volume equal to 1 ml: The biopsies are incubated in an O2 (95%) and CO2 (5%) atmosphere at a temperature of 37° C. for a period ranging from 4 h to 72 h. Three different amounts of medium are shared for the ELISA assay of Th1 and Th2 cytokines released in culture media.

IL-2 [4] = test: Gene expression (mRNA) by RT-PCR in cultured duodenal biopsies of celiac patients: IL-2; type: cell-based, human; conditions: PT medium with 5-ASA versus PT medium, 37° C., 48 h; optical density of bands
TNF = test: Cytokine assay (ELISA) from homogenate of cultured duodenal biopsies: TNF; type: cell-based, human; conditions: for TNF, PT + 5ASA O, Mean / TNF, PT + 5ASA O, Median: peptic-tryptic digest of gliadin (PT)
Method: as §1

[5] = Atrophic population, N 9, Wilcoxon p = 0.003
[6] = Atrophic population, N 9, Wilcoxon p = 0.019
[7] = Remission population, N 4, Wilcoxon p = N.S.
[8] = Atrophic population, N 22, Wilcoxon p = 0.05
[9] = Atrophic population, N 22, Wilcoxon p = 0.08
[10] = Positive control population, N 7
[11] = Positive control population, N 7, Wilcoxon p = N.S.
[12] = Remission population, N 15, Wilcoxon p = 0.022
[13] = Remission population, N 15, Wilcoxon p = N.S.
[14] = Atrophic population, N 15, Wilcoxon p = 0.012
[15] = Atrophic population, N 15, Wilcoxon p = 0.03
[16] = Positive control population, N 7, Wilcoxon p = 0.07
[17] = Remission population, N 12, Wilcoxon p = N.S.
[18] = Atrophic population, N 11, Wilcoxon p = 0.002
[19] = Atrophic population, N 11, Wilcoxon p = N.S.
[20] = Remission population, N 5, Wilcoxon p = N.S.

Compound: Nc1ccc(O)c(C(=O)O)c1 [Compound 5ASA, mesalazine]
- IFN, Medium + 5ASA O, Mean (IFN [1]; Atrophic population, N 9): 0.202
- IFN, Medium + 5ASA O, Median (IFN [1]; Atrophic population, N 9): 0.193
- IFN, Difference Medium O/Medium + 5ASA O, Mean (IFN [1]; [5]): 0.0951
- IFN, Difference Medium O/Medium + 5ASA O, Median (IFN [1]; [5]): 0.0560
- IFN, Difference PT O/PT + 5ASA O, Mean (IFN [1]; [6]): 0.0437
- IFN, Difference PT O/PT + 5ASA O, Median (IFN [1]; [6]): 0.0380
- IFN, PT + 5ASA O, Mean (IFN [1]; Atrophic population, N 9): 0.179
- IFN, PT + 5ASA O, Median (IFN [1]; Atrophic population, N 9): 0.193
- IFN, Medium + 5ASA O, Mean (IFN [1]; Remission population, N 4): 0.133
- IFN, Difference Medium O/Medium + 5ASA O, Mean (IFN [1]; [7]): 0.120
- IFN, Difference PT O/PT + 5ASA O, Mean (IFN [1]; [7]): 0.0230
- IFN, Difference PT O/PT + 5ASA O, Median (IFN [1]; [7]): 0.0215
- IFN, PT + 5ASA O, Mean (IFN [1]; Remission population, N 4): 0.177
- IFN, PT + 5ASA O, Median (IFN [1]; Remission population, N 4): 0.161
- increase of the reporter gene activity (PPARγ): 2.8±0.7 fold
- IFN, Difference PT C/PT + 5ASA C, Mean (IFN [2]; [8]): 0.0657
- IFN, Difference PT C/PT + 5ASA C, Median (IFN [2]; [8]): 0.0505
- IFN, Difference Medium C/Medium + 5ASA C, Mean (IFN [2]; [9]): 0.0601
- IFN, Difference Medium C/Medium + 5ASA C, Median (IFN [2]; [9]): 0.0260
- IFN, PT + 5ASA C, Mean (IFN [2]; Atrophic population, N 22): 0.145
- IFN, PT + 5ASA C, Median (IFN [2]; Atrophic population, N 22): 0.0545
- IFN, Medium + 5ASA C, Mean (IFN [2]; [10]): 0.149
- IFN, Medium + 5ASA C, Median (IFN [2]; [10]): 0.140
- IFN, Difference Medium C/Medium + 5ASA C, Mean (IFN [2]; [11]): 0.004
- IFN, Difference Medium C/Medium + 5ASA C, Median (IFN [2]; [11]): 0.029
- IFN, Difference PT C/PT + 5ASA C, Mean (IFN [2]; [11]): 0.0247
- IFN, Difference PT C/PT + 5ASA C, Median (IFN [2]; [11]): 0.0090
- IFN, PT + 5ASA C, Mean (IFN [2]; [10]): 0.116
- IFN, PT + 5ASA C, Median (IFN [2]; [10]): 0.121
- IFN, Medium + 5ASA C, Mean (IFN [2]; Remission population, N 15): 0.201
- IFN, Medium + 5ASA C, Median (IFN [2]; Remission population, N 15): 0.208
- IFN, Difference PT C/PT + 5ASA C, Mean (IFN [2]; [12]): 0.101
- IFN, Difference PT C/PT + 5ASA C, Median (IFN [2]; [12]): 0.0210
- IFN, Difference Medium C/Medium + 5ASA C, Mean (IFN [2]; [13]): 0.0383
- IFN, Difference Medium C/Medium + 5ASA C, Median (IFN [2]; [13]): 0.0500
- IFN, PT + 5ASA C, Mean (IFN [2]; Remission population, N 15): 0.153
- IFN, PT + 5ASA C, Median (IFN [2]; Remission population, N 15): 0.0960
- IL-2, Medium + 5ASA C, Mean (IL-2 [3]; Atrophic population, N 15): 0.119
- IL-2, Medium + 5ASA C, Median (IL-2 [3]; Atrophic population, N 15): 0.0910
- IL-2, Difference PT C/PT + 5ASA C, Mean (IL-2 [3]; [14]): 0.0270
- IL-2, Difference PT C/PT + 5ASA C, Median (IL-2 [3]; [14]): 0.0410
- IL-2, Difference Medium C/Medium + 5ASA C, Mean (IL-2 [3]; [15]): 0.0559
- IL-2, Difference Medium C/Medium + 5ASA C, Median (IL-2 [3]; [15]): 0.0490
- IL-2, PT + 5ASA C, Mean (IL-2 [3]; Atrophic population, N 15): 0.124
- IL-2, PT + 5ASA C, Median (IL-2 [3]; Atrophic population, N 15): 0.0770
- IL-2, Medium + 5ASA C, Mean (IL-2 [3]; [10]): 0.356
- IL-2, Medium + 5ASA C, Median (IL-2 [3]; [10]): 0.379
- IL-2, Difference Medium C/Medium + 5ASA C, Mean (IL-2 [3]; [16]): 0.116
- IL-2, Difference Medium C/Medium + 5ASA C, Median (IL-2 [3]; [16]): 0.247
- IL-2, Difference PT C/PT + 5ASA C, Mean (IL-2 [3]; [11]): −0.020
- IL-2, Difference PT C/PT + 5ASA C, Median (IL-2 [3]; [11]): 0.0210
- IL-2, PT + 5ASA C, Mean (IL-2 [3]; [10]): 0.521
- IL-2, PT + 5ASA C, Median (IL-2 [3]; [10]): 0.468
- IL-2, Medium + 5ASA C, Mean (IL-2 [3]; Remission population, N 12): 0.309
- IL-2, Medium + 5ASA C, Median (IL-2 [3]; Remission population, N 12): 0.253
- IL-2, Difference Medium C/Medium + 5ASA C, Mean (IL-2 [3]; [17]): 0.0061
- IL-2, Difference Medium C/Medium + 5ASA C, Median (IL-2 [3]; [17]): 5E−4
- IL-2, Difference PT C/PT + 5ASA C, Mean (IL-2 [3]; [17]): 0.0365
- IL-2, Difference PT C/PT + 5ASA C, Median (IL-2 [3]; [17]): 0.0260
- IL-2, PT + 5ASA C, Mean (IL-2 [3]; Remission population, N 12): 0.234
- IL-2, PT + 5ASA C, Median (IL-2 [3]; Remission population, N 12): 0.194
- gene expression (mRNA) of IFN-gamma (IFN-gamma): well reduced
- gene expression (mRNA) of TFN-alpha (TFN-alpha): well reduced
- effect of Mesalazine in culture media on the cytokines (cytokines): blocks the cytokines in celiac disease subjects only
- gene expression (mRNA) of IL-2 (IL-2 [4]): well reduced
- TNF, Medium + 5ASA O, Mean (TNF; Atrophic population, N 11): 0.123
- TNF, Difference PT O/PT + 5ASA O, Mean (TNF; [18]): 0.0554
- TNF, Difference PT O/PT + 5ASA O, Median (TNF; [18]): 0.0270
- TNF, Difference Medium O/Medium + 5ASA O, Mean (TNF; [19]): 0.0154
- TNF, Difference Medium O/Medium + 5ASA O, Median (TNF; [19]): 0.0100
- TNF, PT + 5ASA O, Mean (TNF; Atrophic population, N 11): 0.101
- TNF, PT + 5ASA O, Median (TNF; Atrophic population, N 11): 0.0980
- TNF, Medium + 5ASA O, Mean (TNF; Remission population, N 5): 0.122
- TNF, Difference Medium O/Medium + 5ASA O, Mean (TNF; [20]): −0.00
- TNF, Difference Medium O/Medium + 5ASA O, Median (TNF; [20]): 0.0050
- TNF, Difference PT O/PT + 5ASA O, Mean (TNF; [20]): 0.0194
- TNF, Difference PT O/PT + 5ASA O, Median (TNF; [20]): 0.0210
- TNF, PT + 5ASA O, Mean (TNF; Remission population, N 5): 0.107
- TNF, PT + 5ASA O, Median (TNF; Remission population, N 5): 0.110

Reference: patent publication US8153693B2, “Compounds for the selective treatment of the intestinal immuno-inflammatory component of the celiac disease” (Giuliani International Limited, priority 2007, dated 2012)
